Data reported in the NIST ThermoML archive (doi:10.1021/je300590v).
± gives the expanded uncertainty stated by the source.

Assay: xn = mol fraction of the nth substance listed
Details: Vibrating tube method

O=O [oxygen] + O=C=O
mass density [kg/m3]
Details	x2 = 0.8512	x2 = 0.9558
273.15 K, 1001 kPa, Gas	20 ± 0.2	21 ± 0.2
273.15 K, 2001 kPa, Gas	41.9 ± 0.2	44.5 ± 0.2
273.15 K, 3000 kPa, Gas	68 ± 0.2	–
273.15 K, 3001 kPa, Gas	–	74.2 ± 0.2
273.15 K, 3600 kPa, Gas	–	97.6 ± 0.3
273.15 K, 4001 kPa, Gas	101 ± 0.3	–
273.15 K, 4400 kPa, Gas	121.1 ± 0.3	–
273.15 K, 5101 kPa, Liquid	–	895 ± 1
273.15 K, 6000 kPa, Liquid	–	902.5 ± 1.1
273.15 K, 7001 kPa, Liquid	–	911.9 ± 1
273.15 K, 8001 kPa, Liquid	–	920.4 ± 1.1
273.15 K, 9001 kPa, Liquid	–	928.6 ± 1
273.15 K, 9013 kPa, Liquid	798.3 ± 1.4	–
273.15 K, 10001 kPa, Liquid	–	936 ± 1
273.15 K, 10003 kPa, Liquid	811.5 ± 1.4	–
273.15 K, 11001 kPa, Liquid	825.1 ± 1.2	943.1 ± 1
273.15 K, 12001 kPa, Liquid	837.4 ± 1.1	949.6 ± 0.9
273.15 K, 13001 kPa, Liquid	848.5 ± 1.1	955.8 ± 0.9
273.15 K, 14000 kPa, Liquid	858.7 ± 1	961.5 ± 0.9
273.15 K, 15002 kPa, Liquid	868.2 ± 1	967.1 ± 0.9
273.15 K, 16000 kPa, Liquid	877 ± 1	–
273.15 K, 16001 kPa, Liquid	–	972.4 ± 0.9
273.15 K, 17000 kPa, Liquid	–	977.6 ± 0.8
273.15 K, 17003 kPa, Liquid	885.4 ± 0.9	–
273.15 K, 18000 kPa, Liquid	892.9 ± 0.9	–
273.15 K, 18001 kPa, Liquid	–	982.4 ± 0.8
273.15 K, 19001 kPa, Liquid	–	987.2 ± 0.8
273.15 K, 19039 kPa, Liquid	898.3 ± 1	–
273.15 K, 20001 kPa, Liquid	–	991.7 ± 0.8
283.15 K, 1000 kPa, Gas	–	21 ± 0.2
283.15 K, 1002 kPa, Gas	19.2 ± 0.2	–
283.15 K, 2000 kPa, Gas	–	43.2 ± 0.2
283.15 K, 2001 kPa, Gas	39.7 ± 0.2	–
283.15 K, 3000 kPa, Gas	63.3 ± 0.2	–
283.15 K, 3001 kPa, Gas	–	69.8 ± 0.2
283.15 K, 4000 kPa, Gas	–	103.9 ± 0.3
283.15 K, 4001 kPa, Gas	91.1 ± 0.2	–
283.15 K, 4700 kPa, Gas	–	139.4 ± 0.4
283.15 K, 5000 kPa, Gas	125.7 ± 0.3	–
283.15 K, 6001 kPa, Gas	175.6 ± 0.4	–
283.15 K, 6200 kPa, Liquid	–	819 ± 1.2
283.15 K, 7000 kPa, Liquid	–	835.3 ± 1.2
283.15 K, 8001 kPa, Liquid	–	849.8 ± 1.1
283.15 K, 9001 kPa, Liquid	–	862.8 ± 1.2
283.15 K, 9610 kPa, Liquid	686.6 ± 1.5	–
283.15 K, 10001 kPa, Liquid	699.4 ± 1.7	873.8 ± 1.1
283.15 K, 11001 kPa, Liquid	728.8 ± 1.6	–
283.15 K, 11004 kPa, Liquid	–	884.1 ± 1.1
283.15 K, 12000 kPa, Liquid	–	893.2 ± 1
283.15 K, 12001 kPa, Liquid	751.4 ± 1.4	–
283.15 K, 13000 kPa, Liquid	770.5 ± 1.3	901.9 ± 1
283.15 K, 14001 kPa, Liquid	786.6 ± 1.2	–
283.15 K, 14002 kPa, Liquid	–	909.9 ± 0.9
283.15 K, 15000 kPa, Liquid	800 ± 1.1	917.3 ± 0.9
283.15 K, 16001 kPa, Liquid	812.4 ± 1.1	924.2 ± 0.9
283.15 K, 17000 kPa, Liquid	–	930.8 ± 0.9
283.15 K, 17001 kPa, Liquid	823.5 ± 1	–
283.15 K, 18001 kPa, Liquid	–	937 ± 0.9
283.15 K, 19001 kPa, Liquid	–	943 ± 0.8
283.15 K, 20003 kPa, Liquid	–	948.7 ± 0.8
293.15 K, 1000 kPa, Gas	–	22.8 ± 0.2
293.15 K, 1001 kPa, Gas	18.7 ± 0.2	–
293.15 K, 2000 kPa, Gas	38.1 ± 0.2	–
293.15 K, 2002 kPa, Gas	–	42.6 ± 0.2
293.15 K, 3001 kPa, Gas	59.8 ± 0.2	66.2 ± 0.2
293.15 K, 4001 kPa, Gas	84.6 ± 0.2	95.2 ± 0.2
293.15 K, 5000 kPa, Gas	–	132.4 ± 0.3
293.15 K, 5003 kPa, Gas	113.5 ± 0.3	–
293.15 K, 6001 kPa, Gas	–	190.2 ± 0.4
293.15 K, 6002 kPa, Gas	148.8 ± 0.4	–
293.15 K, 7000 kPa, Gas	194.6 ± 0.4	–
293.15 K, 7402 kPa, Liquid	–	718 ± 1.5
293.15 K, 8001 kPa, Gas	260.9 ± 0.5	–
293.15 K, 8002 kPa, Liquid	–	747 ± 1.3
293.15 K, 8600 kPa, Gas	316 ± 0.6	–
293.15 K, 9001 kPa, Liquid	–	775.6 ± 1.2
293.15 K, 9801 kPa, Fluid (supercritical or subcritical phases)	460.3 ± 0.9	–
293.15 K, 10001 kPa, Fluid (supercritical or subcritical phases)	481.5 ± 1	–
293.15 K, 10001 kPa, Liquid	–	797.4 ± 1.4
293.15 K, 11001 kPa, Liquid	564.7 ± 2.1	–
293.15 K, 11002 kPa, Liquid	–	813.9 ± 1.3
293.15 K, 12001 kPa, Liquid	617.8 ± 1.8	–
293.15 K, 12002 kPa, Liquid	–	828.6 ± 1.2
293.15 K, 13000 kPa, Liquid	–	841.3 ± 1.1
293.15 K, 13002 kPa, Liquid	657.7 ± 1.6	–
293.15 K, 14000 kPa, Liquid	–	852.2 ± 1.1
293.15 K, 14001 kPa, Liquid	686.2 ± 1.4	–
293.15 K, 15001 kPa, Liquid	710.2 ± 1.3	862.4 ± 1
293.15 K, 16001 kPa, Liquid	730.8 ± 1.2	871.6 ± 1
293.15 K, 17000 kPa, Liquid	–	880.2 ± 1
293.15 K, 17002 kPa, Liquid	747.7 ± 1.1	–
293.15 K, 18000 kPa, Liquid	–	888.3 ± 0.9
293.15 K, 19001 kPa, Liquid	–	895.9 ± 0.8
293.15 K, 20000 kPa, Liquid	–	902.8 ± 0.8
